# Measurements from patent publication US7022843B1, “β,β′-dihydroxy meso-substituted chlorins, isobacteriochlorins, and bacteriochlorins” (priority 1999, dated 2006).
# Where “and” joins values, the source holds several entries; their conditions need not be identical. Equal values may be shown once.
# Experiments:
# [1] = tested on: L1210 cells; experiment: Phototoxicity in L1210 cells, MTT viability assay; type: cell-based; conditions: for LD50: phototoxicity
# Procedure: The above described compounds were tested in vitro for phototoxicity and dark toxicity in L1210 cells as described in the Example section below. Twenty four compounds which were tested for cytotoxicity are listed in Table 3 below along with BPD-MA.
# (§1) Phototoxicity was determined with L11210 cells in the presence of the compound as follows: the L1210 cells were exposed to varying concentrations of the compounds in 96-well microtiter plates for one hour at 37° C. and 5% CO2. No fetal calf serum (FCS) was added at this time. The plate was then illuminated for one hour after which a 10% aqueous FCS solution was added to the wells. The plates were then returned to the CO2 incubator overnight. After incubation, the cells were assayed for viability using the MTT assay (Mossman, T. J. Immunol. Meth. 1983, 65, 55).
# [2] = tested on: tumors; conditions: in sensitizing tumors; cited from earlier work
# [3] = tested on: L1210 cells; experiment: Dark cytotoxicity in L1210 cells (plates wrapped in aluminum foil); type: cell-based; conditions: for LD20dark: L1210 cells, absence of light
# Procedure: The above compounds were also tested for dark toxicity. Dark toxicity refers to the toxicity of the drug to cells in the absence of light. This toxicity is, therefore, not due to singlet oxygen mediated cellular damage.
# as §1
# Dark cytotoxicity was determined while the plates were wrapped in aluminum foil while under the light source.
# [4] = tested on: tumors; conditions: cited from earlier work
# [5] = tested on: tumor; conditions: in vivo; cited from earlier work
# [6] = tested on: serum proteins; conditions: normal dose used for PDT (3–5 mg/kg body weight); cited from earlier work
# [7] = L1210 cells, 1 h exposure without FCS, 1 h illumination, MTT
Compound,"LD50 [1, 7]","LD50 ([1]; L1210 cells, Table 4) [ng/mL]",LD50dark [3],LD20dark [3] [ng/mL],other results
"C=Cc1c(C)c2cc3nc(cc4[nH]c(cc5nc(cc1[nH]2)C(C)=C5CCC(=O)O)c(CCC(=O)OC)c4C)C1(C)C3=CC=C(C(=O)OC)C1C(=O)OC (stereo not shown) [BPDMA, reference compound]",0.026 M and 19 ng/mL,,,,"LD50 [1]: 0.026 µM; LD50 ([1]; L1210 cells, 1 h exposure without FCS, 1 h illumination, MTT, listed as BPD-MA): 19 ng/mL; times more potent than HpD [2]: 70; times more potent than Photofrin™ [2]: 45"
"COc1cc(OC)cc(-c2c3nc(c(-c4cc(OC)cc(OC)c4)c4ccc([nH]4)c(-c4cc(OC)cc(OC)c4)c4nc(c(-c5cc(OC)cc(OC)c5)c5ccc2[nH]5)C(O)C4O)C=C3)c1 (stereo not shown) [Compound 16, T(m,m′-OCH3)PC(OH)2]",2.25 M and 2000 ng/mL,2000,12000 ng/mL,5000,
"COc1cc(-c2c3nc(c(-c4ccc(O)c(OC)c4)c4ccc([nH]4)c(-c4ccc(O)c(OC)c4)c4nc(c(-c5ccc(O)c(OC)c5)c5ccc2[nH]5)C(O)C4O)C=C3)ccc1O (stereo not shown) [Compound 17, T(m-OCH3,p-OH)PC(OH)2]",0.0361 M and 30 ng/mL,30,4500 ng/mL,500,
"COc1cc(-c2c3nc(c(-c4cc(OC)c(OC)c(OC)c4)c4ccc([nH]4)c(-c4cc(OC)c(OC)c(OC)c4)c4nc(c(-c5cc(OC)c(OC)c(OC)c5)c5ccc2[nH]5)C(O)C4O)C=C3)cc(OC)c1OC (stereo not shown) [Compound 18, T(m,p,m′-OCH3)PC(OH)2]",0.0198 M and 20 ng/mL,20,20000 ng/mL,7500,
"Cc1ccc(-c2c3nc(c(-c4ccc(C)cc4)c4ccc([nH]4)c(-c4ccc(C)cc4)c4nc(c(-c5ccc(C)cc5)c5ccc2[nH]5)C(O)C4O)C=C3)cc1 (stereo not shown) [Compound 21, T(p-CH3)PC(OH)2]",9.94 M and 7000 ng/mL,7000,15000 ng/mL,5000,
"Cc1cc(C)c(-c2c3nc(c(-c4c(C)cc(C)cc4C)c4ccc([nH]4)c(-c4c(C)cc(C)cc4C)c4nc(c(-c5c(C)cc(C)cc5C)c5ccc2[nH]5)C(O)C4O)C=C3)c(C)c1 (stereo not shown) [Compound 22, T(o,p,o′-CH3)PC(OH)2]",12.3 M and 10000 ng/mL,10000,18000 ng/mL,7500,
"O=S(=O)(O)c1ccc(-c2c3nc(c(-c4ccc(S(=O)(=O)O)cc4)c4ccc([nH]4)c(-c4ccc(S(=O)(=O)O)cc4)c4nc(c(-c5ccc(S(=O)(=O)O)cc5)c5ccc2[nH]5)C(O)C4O)C=C3)cc1 (stereo not shown) [Compound 23, T(p-SO3H)PC(OH)2]",1.11 M and 1000 ng/mL,1000,>>20000 ng/mL,>20000,
"CC(C)(C)c1ccc(-c2c3nc(c(-c4ccc(C(C)(C)C)cc4)c4ccc([nH]4)c(-c4ccc(C(C)(C)C)cc4)c4nc(c(-c5ccc(C(C)(C)C)cc5)c5ccc2[nH]5)C(O)C4O)C=C3)cc1 (stereo not shown) [Compound 24, T(p-t-Bu)PC(OH)2]",6.88 M and 6000 ng/mL,6000,7000 ng/mL,2000,
"OC1c2cc3ccc([nH]3)c(-c3ccccc3)c3nc(cc4ccc([nH]4)c(-c4ccccc4)c(n2)C1O)C=C3 (stereo not shown) [Compound 25, diphenyl-2,3-dihydroxychlorin]",0.0024 M and 1.2 ng/mL,1.2,5000 ng/mL,1500,"times more potent than BPD-MA ([1]; fold potency based on LD50): 10; times more potent than HpD ([1]; fold potency based on LD50): 700; times more potent than Photofrin™ ([1]; fold potency based on LD50): 450; LD50 ([1]; L1210 cells, 1 h exposure without FCS, 1 h illumination, MTT, listed as diphenyl-2,3-dihydroxychlorin): 1.2 ng/mL"
"Oc1ccc(-c2c3nc(c(-c4ccccc4)c4ccc([nH]4)c(-c4ccccc4)c4nc(c(-c5ccccc5)c5ccc2[nH]5)C=C4)C(O)C3O)cc1 (stereo not drawn) [Compound 27, meso-5-(p-hydroxyphenyl)-10,15,20-triphenyl-2,3-dihydroxychlorin]",0.0211 M and 14 ng/mL,14,9000 ng/mL,2000,
"O=[N+]([O-])c1ccc(-c2c3nc(c(-c4ccccc4)c4ccc([nH]4)c(-c4ccccc4)c4nc(c(-c5ccccc5)c5ccc2[nH]5)C=C4)C(O)C3O)cc1 (stereo not drawn) [Compound 28, meso-5-(p-nitrophenyl)-10,15,20-triphenyl-2,3-dihydroxychlorin]",2.42 M and 2000 ng/mL,2000,18000 ng/mL,2000,
"OC1c2nc(c(-c3ccccc3)c3ccc([nH]3)c(-c3ccccc3)c3nc(c(-c4ccccc4)c4ccc([nH]4)c2-c2ccccc2)C(O)C3O)C1O (stereo not shown) [Compound 29, H2TPB(OH)4]",1.03 M and 700 ng/mL,700,7500 ng/mL,2500,
"COc1cc(OC)c(-c2c3nc(c(-c4c(OC)cc(OC)cc4OC)c4ccc([nH]4)c(-c4c(OC)cc(OC)cc4OC)c4nc(c(-c5c(OC)cc(OC)cc5OC)c5ccc2[nH]5)C(O)C4O)C(O)C3O)c(OC)c1 (stereo not shown) [Compound 30, T(o,p,o′-OCH3)PB(OH)4]",18 ng/mL,18,18000 ng/mL,1200,
Oc1cccc(-c2c3nc(c(-c4cccc(O)c4)c4ccc([nH]4)c(-c4cccc(O)c4)c4nc(c(-c5cccc(O)c5)c5ccc2[nH]5)CC4)C=C3)c1 [Tetra(m-hydroxyphenyl)chlorin],,,,,"LD50 ([4]; in vivo bioassays): 3 mg/kg; times more effective than HpD in destroying tumors ([4]; in vivo): 25–30; recurrence [5]: 10%; side effects [5]: extended skin sensitivity, severe chest pains and loss of appetite; tumor necrosis [5]: 90%"
CC1=C(CCC(=O)O)c2cc3[nH]c(cc4nc(cc5[nH]c(cc1n2)c(C)c5C(C)O)C(C)=C4C(C)O)c(C)c3CCC(=O)O (stereo not shown) [hematoporphyrin],,,,,complexed by serum proteins [6]: at least 95%
T(p-OCH3)PC(OH)2 [Compound 14],7.81 M and 6000 ng/mL,6000,>20000 ng/mL,9000,
T(p-OCOEt)PC(OH)2 [Compound 13],,1000,20000 ng/mL,8000,
